Measured values taken from ChEMBL document CHEMBL6109136, “Discovery of the 2,3-Dihydrobenzopyrane-4-one as a Potent FTO Inhibitor against Obesity-Related Metabolic Diseases” (J Med Chem, 2025).

What was measured:
[1] = molecular target: T1, Alpha-ketoglutarate-dependent dioxygenase FTO (Homo sapiens, UniProt Q9C0B1); experiment: Inhibition of His-tagged N-terminal FTO (unknown origin)
[2] = molecular target: T2, Cytochrome P450 2C9 (Homo sapiens, UniProt P11712); experiment: Inhibition of CYP2C9 in human liver microsome by Liquid chromatography-tandem mass spectrometric analysis
T2 sequence (P11712 whole entry): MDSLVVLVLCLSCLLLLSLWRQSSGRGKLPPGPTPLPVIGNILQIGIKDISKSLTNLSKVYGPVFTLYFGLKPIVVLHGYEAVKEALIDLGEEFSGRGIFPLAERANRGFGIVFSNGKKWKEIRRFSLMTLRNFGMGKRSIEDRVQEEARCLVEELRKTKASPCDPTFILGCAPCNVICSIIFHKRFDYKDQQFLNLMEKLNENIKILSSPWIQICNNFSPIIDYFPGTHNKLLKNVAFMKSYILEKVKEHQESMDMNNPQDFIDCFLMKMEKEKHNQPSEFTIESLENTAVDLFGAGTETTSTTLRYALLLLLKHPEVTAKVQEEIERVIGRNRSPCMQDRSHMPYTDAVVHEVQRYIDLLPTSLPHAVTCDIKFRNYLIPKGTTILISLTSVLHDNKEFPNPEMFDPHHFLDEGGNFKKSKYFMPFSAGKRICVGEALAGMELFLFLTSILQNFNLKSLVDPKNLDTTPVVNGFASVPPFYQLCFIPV

[3] = in vivo; settings: male, Sprague-Dawley, rat, po, 10 mg/kg
Description: AUC (0 to infinity) in male Sprague-Dawley rat at 10 mg/kg, po measured up to 24 hrs by HPLC analysis

[4] = Binding affinity to GFP-tagged FTO Tyr108 mutant (unknown origin) assessed as dissociation constant by microscale thermophoresis analysis
[5] = Binding affinity to GFP-tagged FTO Glu234 mutant (unknown origin) assessed as dissociation constant by microscale thermophoresis analysis
[6] = in vivo; settings: male, Sprague-Dawley, rat, iv, 5 mg/kg
Description: Cmax in male Sprague-Dawley rat at 5 mg/kg, iv measured up to 8 hrs by HPLC analysis

[7] = MRT in male Sprague-Dawley rat at 10 mg/kg, po measured up to 24 hrs by HPLC analysis; settings: in vivo
[8] = molecular target: T1, Alpha-ketoglutarate-dependent dioxygenase FTO; experiment: Binding affinity to GFP-tagged FTO (unknown origin) assessed as dissociation constant by SPR analysis
[9] = in vivo; settings: male, Sprague-Dawley, rat, po, 10 mg/kg; remark: listed apart in the source
Description: Cmax in male Sprague-Dawley rat at 10 mg/kg, po measured up to 24 hrs by HPLC analysis

[10] = molecular target: Cytochrome P450 2D6 (Homo sapiens, UniProt P10635); experiment: Inhibition of recombinant CYP2D6 in human liver microsome by Liquid chromatography-tandem mass spectrometric analysis
Chain of Cytochrome P450 2D6 (P10635 whole entry): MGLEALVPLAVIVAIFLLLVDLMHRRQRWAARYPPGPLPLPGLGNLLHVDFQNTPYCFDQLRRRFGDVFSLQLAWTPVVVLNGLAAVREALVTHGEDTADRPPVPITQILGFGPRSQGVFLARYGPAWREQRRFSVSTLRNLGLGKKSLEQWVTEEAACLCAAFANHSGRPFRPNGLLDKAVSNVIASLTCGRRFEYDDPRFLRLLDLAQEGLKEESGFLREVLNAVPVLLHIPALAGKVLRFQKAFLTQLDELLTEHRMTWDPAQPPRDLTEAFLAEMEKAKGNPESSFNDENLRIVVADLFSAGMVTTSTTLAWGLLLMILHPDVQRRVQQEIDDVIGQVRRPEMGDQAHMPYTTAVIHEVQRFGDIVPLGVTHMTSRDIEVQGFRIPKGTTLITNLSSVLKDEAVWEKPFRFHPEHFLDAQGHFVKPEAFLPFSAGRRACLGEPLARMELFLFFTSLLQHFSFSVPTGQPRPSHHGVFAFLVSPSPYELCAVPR

[11] = Binding affinity to GFP-tagged FTO (Ser229) mutant (unknown origin) assessed as dissociation constant by microscale thermophoresis analysis
[12] = molecular target: Cytochrome P450 2C19 (Homo sapiens, UniProt P33261); experiment: Inhibition of recombinant CYP2C19 in human liver microsome by Liquid chromatography-tandem mass spectrometric analysis
Chain of Cytochrome P450 2C19 (P33261 whole entry): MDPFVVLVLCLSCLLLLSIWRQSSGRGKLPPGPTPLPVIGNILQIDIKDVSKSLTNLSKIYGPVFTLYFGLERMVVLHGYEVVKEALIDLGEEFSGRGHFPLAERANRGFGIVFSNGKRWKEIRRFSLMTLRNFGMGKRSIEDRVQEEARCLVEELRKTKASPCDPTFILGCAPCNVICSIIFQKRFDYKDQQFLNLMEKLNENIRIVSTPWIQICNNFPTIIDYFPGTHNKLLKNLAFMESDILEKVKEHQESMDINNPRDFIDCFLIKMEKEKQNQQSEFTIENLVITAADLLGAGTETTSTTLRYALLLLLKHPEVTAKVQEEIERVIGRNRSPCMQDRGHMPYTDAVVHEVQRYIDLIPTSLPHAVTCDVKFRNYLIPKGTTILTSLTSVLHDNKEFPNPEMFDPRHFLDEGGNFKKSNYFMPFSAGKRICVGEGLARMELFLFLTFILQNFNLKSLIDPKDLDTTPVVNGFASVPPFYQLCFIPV

[13] = in vitro; settings: rat, liver microsomes
Description: Metabolic stability in rat liver microsomes assessed as intrinsic clearance per mg protein at 1 uM by HPLC analysis

[14] = molecular target: T2, Cytochrome P450 2C9; experiment: Inhibition of recombinant CYP2C9 in human liver microsome by Liquid chromatography-tandem mass spectrometric analysis
[15] = molecular target: T1, Alpha-ketoglutarate-dependent dioxygenase FTO; experiment: Binding affinity to GFP-tagged FTO (unknown origin) assessed as dissociation constant by microscale thermophoresis analysis
[16] = Binding affinity to GFP-tagged FTO Arg96 mutant (unknown origin) assessed as dissociation constant by microscale thermophoresis analysis
[17] = Binding affinity to GFP-tagged FTO Asp233 mutant (unknown origin) assessed as dissociation constant by microscale thermophoresis analysis
[18] = in vitro; settings: rat, liver microsomes; remark: listed apart in the source
Description: Metabolic stability in rat liver microsomes assessed as hepatic clearance at 1 uM by HPLC analysis

[19] = in vivo; settings: male, Sprague-Dawley, rat, po, 10 mg/kg; remark: listed apart in the source
Description: Tmax in male Sprague-Dawley rat at 10 mg/kg, po measured up to 24 hrs by HPLC analysis

[20] = Half-life in male Sprague-Dawley rat at 10 mg/kg, po measured up to 24 hrs by HPLC analysis; settings: in vivo
[21] = Half-life in male Sprague-Dawley rat at 5 mg/kg, iv measured up to 8 hrs by HPLC analysis; settings: in vivo
[22] = in vitro; settings: human, liver microsomes
Description: Metabolic stability in human liver microsomes assessed as intrinsic clearance per mg protein at 1 uM by HPLC analysis

[23] = in vivo; settings: male, Sprague-Dawley, rat, po, 10 mg/kg; remark: listed apart in the source
Description: Oral bioavailability in male Sprague-Dawley rat at 10 mg/kg measured up to 24 hrs by HPLC analysis

[24] = MRT in male Sprague-Dawley rat at 5 mg/kg, iv measured up to 8 hrs by HPLC analysis; settings: in vivo
[25] = in vitro; settings: rat, liver microsomes; remark: listed apart in the source
Description: Metabolic stability in rat liver microsome assessed as half-life at 1 uM by HPLC analysis

[26] = in vitro; settings: human, liver microsomes; remark: listed apart in the source
Description: Metabolic stability in human liver microsome assessed as half-life at 1 uM by HPLC analysis

[27] = molecular target: CYP3A4/5 (Homo sapiens, UniProt P08684+P20815); experiment: Inhibition of recombinant CYP3A4/5 in human liver microsome by Liquid chromatography-tandem mass spectrometric analysis; settings: recombinant CYP3A4/5 in human liver microsomes
[28] = in vivo; settings: male, Sprague-Dawley, rat, iv, 5 mg/kg; remark: listed apart in the source
Description: AUC (0 to infinity) in male Sprague-Dawley rat at 5 mg/kg, iv measured up to 8 hrs by HPLC analysis

[29] = in vitro; settings: human, liver microsomes; remark: listed apart in the source
Description: Metabolic stability in human liver microsomes assessed as hepatic clearance at 1 uM by HPLC analysis

T1 sequence (Q9C0B1 whole entry): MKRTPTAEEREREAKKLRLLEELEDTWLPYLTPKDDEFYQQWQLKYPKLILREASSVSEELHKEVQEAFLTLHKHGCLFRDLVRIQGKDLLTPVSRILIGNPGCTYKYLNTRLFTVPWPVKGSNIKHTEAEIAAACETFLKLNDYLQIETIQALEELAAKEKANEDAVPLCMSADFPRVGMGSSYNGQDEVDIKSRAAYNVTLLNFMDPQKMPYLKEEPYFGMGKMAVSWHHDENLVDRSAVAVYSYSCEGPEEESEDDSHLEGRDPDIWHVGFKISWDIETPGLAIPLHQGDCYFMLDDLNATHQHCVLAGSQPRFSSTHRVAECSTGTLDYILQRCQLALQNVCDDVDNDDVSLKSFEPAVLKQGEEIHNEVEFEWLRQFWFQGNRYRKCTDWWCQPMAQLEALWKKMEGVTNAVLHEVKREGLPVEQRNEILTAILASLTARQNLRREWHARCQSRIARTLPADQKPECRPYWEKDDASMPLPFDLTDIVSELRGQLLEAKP

**Q.** Which IC50 [1] does the source give for `O=c1cc(-c2ccc(O)c(O)c2)oc2ccccc12` here?
**A.** 5.7 µM

**Q.** For `O=c1c(O)c(-c2ccc(O)cc2)oc2ccccc12`, which IC50 [1] is on record?
**A.** 18.5 µM

**Q.** Which IC50 [1] does the source give for `O=c1cc(-c2cc(O)c(O)c(O)c2)oc2ccccc12` here?
**A.** 13.9 µM

**Q.** For `O=c1ccoc2cc(O)ccc12`, which IC50 [1] is on record?
**A.** 16.2 µM

**Q.** With `O=c1cc(-c2ccccc2)oc2cccc(O)c12` [5-HYDROXYFLAVONE] as the compound, how does the IC50 [1] read?
**A.** 19.2 µM

**Q.** With `O=c1cc(-c2ccccc2)oc2ccc(O)cc12` [6-HYDROXYFLAVONE] as the compound, how does the IC50 [1] read?
**A.** 17.8 µM

**Q.** For `O=c1cc(-c2ccccc2)oc2cc(O)ccc12` [7-HYDROXYFLAVONE], which IC50 [1] is on record?
**A.** 17.9 µM

**Q.** With `O=c1cc(-c2ccc(O)cc2)oc2cc(O)cc(O)c12` [APIGENIN] as the compound, how does the IC50 [1] read?
**A.** 12.1 µM

**Q.** For `O=c1cc(-c2ccccc2)oc2cc(O)c(O)c(O)c12` [BAICALEIN], which IC50 [1] is on record?
**A.** 17.1 µM

**Q.** With `O=c1ccoc2ccccc12` [CHROMONE] as the compound, how does the IC50 [1] read?
**A.** 89.8 µM

**Q.** For `CCN(CC)C(=O)/C(C#N)=C/c1cc(O)c(O)c([N+](=O)[O-])c1` [ENTACAPONE], which IC50 [2] is on record?
**A.** 4 µM

**Q.** Which AUC(0-inf) at 24 h [3] does the source give for `O=C1C[C@@H](c2ccc(O)c(O)c2)Oc2cc(O)cc(O)c21` [ERIODICTYOL] here?
**A.** 559 ng·h/mL

**Q.** And the Kd [4]?
**A.** 47.6 µM

**Q.** What about the Kd [5] of the same compound?
**A.** 186 µM

**Q.** What about the Cmax at 8 h [6] of the same compound?
**A.** 1830 ng/mL

**Q.** What about the MRT at 24 h [7] of the same compound?
**A.** 1.89 h

**Q.** What about the Kd [8] of the same compound?
**A.** 3.24 µM

**Q.** And the Cmax at 24 h [9]?
**A.** 472 ng/mL

**Q.** And the IC50 [10]?
**A.** > 50 µM

**Q.** What about the Kd [11] of the same compound?
**A.** 170 µM

**Q.** What about the IC50 [12] of the same compound?
**A.** 44 µM

**Q.** What about the microsomal CLint at 1 µM [13] of the same compound?
**A.** 67.2 µL/min/mg

**Q.** And the IC50 [14]?
**A.** > 50 µM

**Q.** And the Kd [15]?
**A.** 2.8 µM

**Q.** And the IC50 [1]?
**A.** 3.5 µM

**Q.** What about the Kd [16] of the same compound?
**A.** 257 µM

**Q.** And the Kd [17]?
**A.** 109 µM

**Q.** What about the CLhep predicted at 1 µM [18] of the same compound?
**A.** 37.9 mL/min/kg

**Q.** And the Tmax at 24 h [19]?
**A.** 0.5 h

**Q.** And the half-life at 24 h [20]?
**A.** 3.35 h

**Q.** And the half-life at 8 h [21]?
**A.** 1.63 h

**Q.** What about the microsomal CLint at 1 µM [22] of the same compound?
**A.** < 7.4 µL/min/mg

**Q.** And the bioavailability at 24 h [23]?
**A.** 29.9%

**Q.** And the MRT at 8 h [24]?
**A.** 0.828 h

**Q.** And the half-life at 1 µM [25]?
**A.** 0.345 h

**Q.** And the half-life at 1 µM [26]?
**A.** > 3.11 h

**Q.** What about the IC50 [27] of the same compound?
**A.** > 50 µM

**Q.** And the AUC(0-inf) at 8 h [28]?
**A.** 932 ng·h/mL

**Q.** And the CLhep predicted at 1 µM [29]?
**A.** < 6.1 mL/min/kg

**Q.** For `O=c1c(O)c(-c2ccc(O)c(O)c2)oc2cc(O)ccc12` [FISETIN], which IC50 [1] is on record?
**A.** 9.2 µM

**Q.** For `O=c1c(O)c(-c2ccccc2)oc2cc(O)cc(O)c12` [GALANGIN], which IC50 [1] is on record?
**A.** 19.1 µM

**Q.** Which IC50 [1] does the source give for `COc1ccc(-c2oc3cc(O)cc(O)c3c(=O)c2O)cc1` [KAEMPFERIDE] here?
**A.** 18.2 µM

**Q.** Which IC50 [1] does the source give for `O=c1c(O)c(-c2ccc(O)cc2)oc2cc(O)cc(O)c12` [KAEMPFEROL] here?
**A.** 17.6 µM

**Q.** Which IC50 [1] does the source give for `O=c1cc(-c2ccc(O)c(O)c2)oc2cc(O)cc(O)c12` [LUTEOLIN] here?
**A.** 7.5 µM

**Q.** With `O=c1c(O)c(-c2ccc(O)cc2O)oc2cc(O)cc(O)c12` [MORIN] as the compound, how does the IC50 [1] read?
**A.** 13.9 µM

**Q.** For `O=c1c(O)c(-c2cc(O)c(O)c(O)c2)oc2cc(O)cc(O)c12` [MYRICETIN], which Kd [15] is on record?
**A.** 34 µM

**Q.** And the IC50 [1]?
**A.** 9.6 µM

**Q.** For `O=c1c(O)c(-c2ccc(O)c(O)c2)oc2cc(O)cc(O)c12` [QUERCETIN], which IC50 [1] is on record?
**A.** 9.5 µM

**Q.** For `O=c1cc(-c2ccc(O)cc2)oc2cc(O)c(O)c(O)c12` [SCUTELLAREIN], which IC50 [1] is on record?
**A.** 15.6 µM

**Q.** Which IC50 [1] does the source give for `O=c1cc(-c2cc(O)c(O)c(O)c2)oc2cc(O)cc(O)c12` [TRICETIN] here?
**A.** 7.7 µM
